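Values below derive from 48-hour exposures of cells grown in 96-well plates, with endpoints linearly interpolated between the two concentrations bracketing the appropriate inhibition level. GI50 marks 50% less growth.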 Activity calls are given as the source filed them. No stated cut-off is given here; in the data, active = GI50 up to about 1.1 µM and inactive = higher.
Columns and labels:
Assay in all cases: NCI-60 cell line screen, 48 h
[1] = system: A549
[2] = system: CAKI-1
[3] = system: CCRF-CEM
[4] = system: DLD-1
[5] = system: EKVX
[6] = system: HL-60
[7] = system: HOP-62
[8] = system: HOP-92
[9] = system: IGROV-1
[10] = system: K562
[11] = system: KM12
[12] = system: LXFL 529
[13] = system: M14
[14] = system: MOLT-4
[15] = system: NCI-H226
[16] = system: NCI-H23
[17] = system: NCI-H460
[18] = system: NCI-H522
[19] = system: OVCAR-4
[20] = system: OVCAR-5
[21] = system: RPMI-8226
[22] = system: RXF 393
[23] = system: RXF 631
[24] = system: SF-539
[25] = system: SK-MEL-2
[26] = system: SK-MEL-5
[27] = system: SK-OV-3
[28] = system: SN12C
[29] = system: SR
[30] = system: SW-620
[31] = system: U-251
[32] = system: UACC-257
[33] = system: UO-31
[34] = system: XF498
[35] = system: 786-0
[36] = system: A498
[37] = system: ACHN
[38] = system: COLO 205
[39] = system: DMS-114
[40] = system: DMS-273
[41] = system: HCC 2998
[42] = system: HCT-116
[43] = system: HCT-15
[44] = system: HOP-18
[45] = system: HT-29
[46] = system: KM-20L2
[47] = system: LOX IMVI
[48] = system: Malme-3M
[49] = system: OVCAR-3
[50] = system: OVCAR-8
[51] = system: SF-268
[52] = system: SF-295
[53] = system: SK-MEL-28
[54] = system: SNB-19
[55] = system: SNB-75
[56] = system: SNB-78
[57] = system: TK-10
[58] = system: UACC-62
[59] = system: M19-MEL

## CCCCCCc1cc(C(=O)Nc2ccc(Cl)cc2)nc(S)n1
[1]
  GI50: > 100 µM (inactive)
[2]
  GI50: > 100 µM (inactive)
[3]
  GI50: > 100 µM (inactive)
[4]
  GI50: > 10 µM (inactive)
[5]
  GI50: > 100 µM (inactive)
[6]
  GI50: > 100 µM (inactive)
[7]
  GI50: > 100 µM (inactive)
[8]
  GI50: > 100 µM (inactive)
[9]
  GI50: > 100 µM (inactive)
[10]
  GI50: > 100 µM (inactive)
[11]
  GI50: > 100 µM (inactive)
[12]
  GI50: > 100 µM (inactive)
[13]
  GI50: > 100 µM (inactive)
[14]
  GI50: > 100 µM (inactive)
[15]
  GI50: > 10 µM (inactive)
[16]
  GI50: > 100 µM (inactive)
[17]
  GI50: > 10 µM (inactive)
[18]
  GI50: > 100 µM (inactive)
[19]
  GI50: > 100 µM (inactive)
[20]
  GI50: 31.1 µM (inactive)
[21]
  GI50: > 100 µM (inactive)
[22]
  GI50: > 10 µM (inactive)
[23]
  GI50: > 100 µM (inactive)
[24]
  GI50: > 100 µM (inactive)
[25]
  GI50: > 100 µM (inactive)
[26]
  GI50: > 100 µM (inactive)
[27]
  GI50: > 100 µM (inactive)
[28]
  GI50: > 100 µM (inactive)
[29]
  GI50: > 100 µM (inactive)
[30]
  GI50: > 100 µM (inactive)
[31]
  GI50: > 100 µM (inactive)
[32]
  GI50: > 100 µM (inactive)
[33]
  GI50: > 100 µM (inactive)
[34]
  GI50: > 10 µM (inactive)

## O=C1NC2(NC(=O)C1=O)Nc1ccccc1S2
[35]
  GI50: 21.7 µM (inactive)
[36]
  GI50: 99.1 µM (inactive)
[1]
  GI50: > 60.5 µM (inactive)
[37]
  GI50: 33.4 µM (inactive)
[2]
  GI50: 62.5 µM (inactive)
[3]
  GI50: 20.2 µM (inactive)
[38]
  GI50: 21.6 µM (inactive)
[4]
  GI50: 23.7 µM (inactive)
[39]
  GI50: 28.4 µM (inactive)
[40]
  GI50: 42.1 µM (inactive)
[5]
  GI50: > 100 µM (inactive)
[41]
  GI50: > 65.5 µM (inactive)
[42]
  GI50: 19.2 µM (inactive)
[43]
  GI50: 33.7 µM
[6]
  GI50: 21.6 µM (inactive)
[44]
  GI50: > 100 µM (inactive)
[7]
  GI50: > 83.8 µM (inactive)
[8]
  GI50: > 100 µM (inactive)
[45]
  GI50: 67 µM (inactive)
[9]
  GI50: > 92.7 µM (inactive)
[10]
  GI50: 39.8 µM (inactive)
[46]
  GI50: > 100 µM (inactive)
[11]
  GI50: > 80.4 µM (inactive)
[47]
  GI50: 18.9 µM (inactive)
[12]
  GI50: 36.6 µM (inactive)
[13]
  GI50: 44.5 µM (inactive)
[14]
  GI50: 27.5 µM (inactive)
[48]
  GI50: 97.1 µM (inactive)
[15]
  GI50: > 58.6 µM (inactive)
[16]
  GI50: > 63 µM (inactive)
[17]
  GI50: 51.5 µM (inactive)
[18]
  GI50: 22.1 µM (inactive)
[49]
  GI50: > 89.3 µM (inactive)
[19]
  GI50: 40 µM (inactive)
[20]
  GI50: > 100 µM (inactive)
[50]
  GI50: 58.7 µM (inactive)
[21]
  GI50: 21.6 µM (inactive)
[22]
  GI50: > 54.6 µM (inactive)
[23]
  GI50: 20 µM (inactive)
[51]
  GI50: 24.8 µM (inactive)
[52]
  GI50: 38.6 µM (inactive)
[24]
  GI50: 27 µM (inactive)
[53]
  GI50: 43.5 µM (inactive)
[25]
  GI50: 55.8 µM (inactive)
[26]
  GI50: 32.7 µM (inactive)
[27]
  GI50: > 100 µM (inactive)
[28]
  GI50: 23.8 µM (inactive)
[54]
  GI50: > 100 µM (inactive)
[55]
  GI50: 68.7 µM (inactive)
[56]
  GI50: > 67.1 µM (inactive)
[29]
  GI50: 24.5 µM (inactive)
[30]
  GI50: 12.9 µM (inactive)
[57]
  GI50: > 100 µM (inactive)
[31]
  GI50: 30.9 µM (inactive)
[32]
  GI50: > 61.4 µM (inactive)
[58]
  GI50: 23.8 µM (inactive)
[33]
  GI50: 30.7 µM (inactive)

## S=c1sc2c(S)nc(S)nc2n1-c1ccccc1
[35]
  GI50: > 100 µM (inactive)
[36]
  GI50: 41 µM (inactive)
[1]
  GI50: > 100 µM (inactive)
[37]
  GI50: > 100 µM (inactive)
[2]
  GI50: > 100 µM (inactive)
[3]
  GI50: 80.2 µM (inactive)
[38]
  GI50: > 100 µM (inactive)
[4]
  GI50: > 100 µM (inactive)
[39]
  GI50: 75.5 µM (inactive)
[40]
  GI50: > 100 µM (inactive)
[5]
  GI50: > 100 µM (inactive)
[41]
  GI50: > 100 µM (inactive)
[42]
  GI50: > 100 µM (inactive)
[43]
  GI50: > 100 µM
[6]
  GI50: > 100 µM (inactive)
[44]
  GI50: > 100 µM (inactive)
[7]
  GI50: > 100 µM (inactive)
[8]
  GI50: 42.4 µM (inactive)
[45]
  GI50: > 100 µM (inactive)
[9]
  GI50: > 100 µM (inactive)
[10]
  GI50: > 100 µM (inactive)
[46]
  GI50: > 100 µM (inactive)
[11]
  GI50: 54.5 µM (inactive)
[47]
  GI50: > 100 µM (inactive)
[12]
  GI50: > 100 µM (inactive)
[13]
  GI50: > 100 µM (inactive)
[59]
  GI50: > 100 µM (inactive)
[14]
  GI50: > 100 µM (inactive)
[48]
  GI50: > 100 µM (inactive)
[15]
  GI50: > 100 µM (inactive)
[16]
  GI50: > 100 µM (inactive)
[17]
  GI50: > 100 µM (inactive)
[18]
  GI50: 41.5 µM (inactive)
[49]
  GI50: > 100 µM (inactive)
[19]
  GI50: > 100 µM (inactive)
[20]
  GI50: > 100 µM (inactive)
[50]
  GI50: > 100 µM (inactive)
[21]
  GI50: > 100 µM (inactive)
[22]
  GI50: > 100 µM (inactive)
[51]
  GI50: > 100 µM (inactive)
[52]
  GI50: > 100 µM (inactive)
[24]
  GI50: > 100 µM (inactive)
[53]
  GI50: > 100 µM (inactive)
[25]
  GI50: > 100 µM (inactive)
[26]
  GI50: > 100 µM (inactive)
[27]
  GI50: > 100 µM (inactive)
[28]
  GI50: > 100 µM (inactive)
[54]
  GI50: > 100 µM (inactive)
[55]
  GI50: 69.8 µM (inactive)
[56]
  GI50: > 100 µM (inactive)
[29]
  GI50: > 100 µM (inactive)
[30]
  GI50: > 100 µM (inactive)
[57]
  GI50: > 100 µM (inactive)
[31]
  GI50: > 100 µM (inactive)
[32]
  GI50: > 100 µM (inactive)
[58]
  GI50: > 100 µM (inactive)
[33]
  GI50: > 100 µM (inactive)
[34]
  GI50: > 100 µM (inactive)
